Laboratory results as given in patent US10975083B2, “Blood-brain barrier-penetrant dopamine-β-hydroxylase inhibitors” (BIAL—PORTELA & Cᵃ, S.A., priority 2016, dated 2021).
Like-named read-outs stand apart in the source and are kept apart here.

Target: T1, DβH (Homo sapiens, UniProt P09172)
T1 construct: reaction mixture (total volume 500 μl) contained: cellular homogenate (75 μg total protein); host or cells: SK-N-SH cell homogenate
T1 sequence (P09172 1-617): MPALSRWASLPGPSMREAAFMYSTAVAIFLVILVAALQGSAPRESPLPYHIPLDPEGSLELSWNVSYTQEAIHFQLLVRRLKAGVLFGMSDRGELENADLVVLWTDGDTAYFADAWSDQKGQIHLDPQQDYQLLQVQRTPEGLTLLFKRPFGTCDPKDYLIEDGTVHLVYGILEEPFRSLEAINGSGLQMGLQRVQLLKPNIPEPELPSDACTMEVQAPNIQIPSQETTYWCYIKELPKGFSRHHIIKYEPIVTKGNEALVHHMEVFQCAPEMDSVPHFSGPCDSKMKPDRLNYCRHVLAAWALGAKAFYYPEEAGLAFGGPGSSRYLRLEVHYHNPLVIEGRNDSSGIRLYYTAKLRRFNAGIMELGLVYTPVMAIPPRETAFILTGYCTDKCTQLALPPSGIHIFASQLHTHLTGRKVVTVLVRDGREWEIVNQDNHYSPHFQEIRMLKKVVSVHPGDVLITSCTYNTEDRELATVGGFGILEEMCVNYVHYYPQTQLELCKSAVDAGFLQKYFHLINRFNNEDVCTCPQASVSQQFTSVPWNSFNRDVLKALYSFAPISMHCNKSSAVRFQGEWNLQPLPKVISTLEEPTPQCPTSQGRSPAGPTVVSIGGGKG
Test: DβH inhibition cell assay (SK-N-SH cellular homogenates, tyramine to octopamine)
Type: biochemical
Conditions: for remaining activity at 0.1 µM: inhibitor 0.1 μM, read-out: DβH activity in % of Ctrl (0.1 μM); for remaining activity at 1 µM: read-out: DβH activity in % of Ctrl (1 μM)
Procedure: The ability of a compound to inhibit DβH activity may be assessed using the following cell assay. […] . […] Fetal bovine serum was removed from cells for 4 h prior to collection.
For the preparation of cellular homogenates, media was removed and cell monolayers were washed with 50 mM Tris-HCl pH 7.4. Cells were subsequently scrapped off the flasks and were resuspended in 50 mM Tris pH 7.4. Cell suspensions were homogenized with SilentCrusher M (Heidolph) for a short stroke and resultant homogenates were aliquoted and stored frozen at −80° C.
Total protein was quantified in cellular homogenates with BioRad Protein Assay (BioRad) using a standard curve of BSA (50-250 μg/mL).
DβH activity was measured by a modification of the method of Nagatsu and Udenfriend (Nagatsu, T. and S. Udenfriend: “Photometric assay of dopamine-hydroxylase activity in human blood.” Clin. Chem. 18(9): 980-3, 1972) which is based on the enzymatic hydroxylation of tyramine into octopamine. The octopamine formed is subsequently oxidized to p-hydroxybenzaldehyde and measured by spectrophotometry. In brief, reaction mixture (total volume 500 μl) contained: cellular homogenate (75 μg total protein) sodium acetate pH 5.0 (200 mM), NEM (30 mM), CuSO4 (5 μM), catalase aqueous solution (0.5 mg/mL), pargyline-HCl (1 mM), sodium fumarate (10 mM), ascorbic acid (10 mM), inhibitor or vehicle and tyramine (25 mM). After a 10 min pre-incubation period at 37° C., the reaction was initiated by the addition of tyramine. Reaction was carried out for 45 min at 37° C. before termination with 50 μl PCA (2 M).
Samples were centrifuged for 3 min at 16100 g and supernatants were subjected to solid phase extraction. Solid phase extraction was performed using either SPE cartridges ISOLUTE SCX-3 (100 mg, 1 mL) or SPE 2 mL fixed 96 well plates ISOLUTE SCX-3 (100 mg) previously equilibrated with MilliQ water. Columns/plates were centrifuged at 150 g for 2 min. Eluate was discarded and matrix was washed with 1 mL of MilliQ water after which octopamine was eluted with 2×0.25 mL ammonium hydroxide (4 M). The oxidation of octopamine to p-hydroxybenzaldehyde was carried out for 6 min with 100 μl sodium periodate (2%) and was stopped with 100 μl sodium metabisulfite (10%). Absorbance was measured at 330 nm on a Spectramax microplate reader (Molecular Devices, Sunnyvale, Calif.). All enzymatic reactions were performed in duplicate. Results are reported in the table below as activity in % of control at the inhibitor concentration tested.

[1] = inhibitor 1 μM, SK-N-SH cell homogenate

| remaining activity at 0.1 µM (SK-N-SH cell homogenate) [%] | remaining activity at 1 µM [1] [%] | SMILES | remaining activity at 1 µM [%] |
| --- | --- | --- | --- |
|  | 36.1 | Fc1cccc([C@@]23C[C@@H]2c2c[nH]c(=S)n2C3)c1F [Example 67, (5aR,6aS)-5a-(2,3-difluorophenyl)-5,5a,6,6a-tetrahydrocyclopropa[3,4]pyrrolo[1,2-c]imidazole-3(2H)-thione] |  |
|  | 14.6 | Fc1ccc(F)c([C@@]23C[C@@H]2c2c[nH]c(=S)n2C3)c1F [Example 69, (5aR,6aS)-5a-(2,3,6-trifluorophenyl)-5,5a,6,6a-tetrahydrocyclopropa[3,4]pyrrolo[1,2-c]imidazole-3 (2H)-thione] |  |
|  | 48.5 | Fc1ccc([C@]23C[C@H]2c2c[nH]c(=S)n2C3)cc1F [Example 71, (5aS,6aR)-5a-(3,4-difluorophenyl)-5,5a,6,6a-tetrahydrocyclopropa[3,4]pyrrolo[1,2-c]imidazole-3(2H)-thione] |  |
|  | 35 | Fc1cc(F)c([C@]23C[C@H]2c2c[nH]c(=S)n2C3)cc1F [Example 72, (5aS,6aR)-5a-(2,4,5-trifluorophenyl)-5,5a,6,6a-tetrahydrocyclopropa[3,4]pyrrolo[1,2-c]imidazole-3 (2H)-thione] |  |
|  | 17.4 | Cn1cc2n(c1=S)C[C@@]1(c3cc(F)cc(F)c3)C[C@@H]21 [Example 76, (5aS,6aR)-5a-(3,5-difluorophenyl)-2-methyl-5,5a,6,6a-tetrahydrocyclopropa[3,4]pyrrolo[1,2-c]imidazole-3 (2H)-thione] |  |
|  | 13 | Cc1[nH]c(=S)n2c1[C@@H]1C[C@]1(c1cc(F)cc(F)c1)C2 [Example 79, (5aS,6aR)-5a-(3,5-difluorophenyl)-1-methyl-5,5a,6,6a-tetrahydrocyclopropa[3,4]pyrrolo[1,2-c]imidazole-3 (2H)-thione] |  |
| 90 | 20 | Fc1cc(F)c(F)c([C@@H]2Cc3c[nH]c(=S)n3C2)c1 [Example 82, (S)-6-(2,3,5-trifluorophenyl)-2,5,6,7-tetrahydro-3H-pyrrolo[1,2-c]imidazole-3-thione] |  |
|  | 29.8 | Fc1cccc(Cl)c1[C@]12C[C@H]1c1c[nH]c(=S)n1C2 [Example 89, (5aS,6aR)-5a-(2-chloro-6-fluorophenyl)-5,5a,6,6a-tetrahydrocyclopropa[3,4]pyrrolo[1,2-c]imidazole-3 (2H)-thione] |  |

The next lines start with the molecule.

| SMILES | remaining activity at 0.1 µM (SK-N-SH cell homogenate) [%] | remaining activity at 1 µM [1] [%] | remaining activity at 1 µM [%] |
| --- | --- | --- | --- |
| Fc1cccc([C@]23C[C@H]2c2c[nH]c(=S)n2C3)c1F [Example 66, (5aS,6aR)-5a-(2,3-difluorophenyl)-5,5a,6,6a-tetrahydrocyclopropa[3,4]pyrrolo[1,2-c]imidazole-3(2H)-thione] | 51.1 | 7.9 |  |
| Fc1ccc(F)c([C@]23C[C@H]2c2c[nH]c(=S)n2C3)c1F [Example 68, (5aS,6aR)-5a-(2,3,6-trifluorophenyl)-5,5a,6,6a-tetrahydrocyclopropa[3,4]pyrrolo[1,2-c]imidazole-3 (2H)-thione] |  | 5.1 |  |
| Fc1ccc([C@]23C[C@H]2c2c[nH]c(=S)n2C3)c(F)c1 [Example 70, (5aS,6aR)-5a-(2,4-difluorophenyl)-5,5a,6,6a-tetrahydrocyclopropa[3,4]pyrrolo[1,2-c]imidazole-3(2H)-thione] |  | 35.7 |  |
| Fc1cc(Cl)cc([C@]23C[C@H]2c2c[nH]c(=S)n2C3)c1 [Example 73, (5aS,6aR)-5a-(3-chloro-5-fluorophenyl)-5,5a,6,6a-tetrahydrocyclopropa[3,4]pyrrolo[1,2-c]imidazole-3 (2H)-thione] | 41.7 | 5.1 |  |
| Fc1ccc(Cl)cc1[C@]12C[C@H]1c1c[nH]c(=S)n1C2 [Example 74, (5aS,6aR)-5a-(5-chloro-2-fluorophenyl)-5,5a,6,6a-tetrahydrocyclopropa[3,4]pyrrolo[1,2-c]imidazole-3 (2H)-thione] | 21.9 | 1.8 |  |
| Fc1ccc(Cl)c([C@]23C[C@H]2c2c[nH]c(=S)n2C3)c1 [Example 75, (5aS,6aR)-5a-(2-chloro-5-fluorophenyl)-5,5a,6,6a-tetrahydrocyclopropa[3,4]pyrrolo[1,2-c]imidazole-3 (2H)-thione] |  | 18.1 |  |
| Fc1cc(F)cc([C@]23C[C@H]2c2cn(C4CC4)c(=S)n2C3)c1 [Example 77, (5aS,6aR)-2-cyclopropyl-5 a-(3,5-difluorophenyl)-5,5a,6,6a-tetrahydrocyclopropa[3,4]pyrrolo[1,2-c]imidazole-3 (2H)-thione] |  | 23 |  |
| Cc1[nH]c(=S)n2c1[C@@H]1C[C@]1(c1cc(F)ccc1F)C2 [Example 78, (5aS,6aR)-5a-(2,5-difluorophenyl)-1-methyl-5,5a,6,6a-tetrahydrocyclopropa[3,4]pyrrolo[1,2-c]imidazole-3 (2H)-thione] |  | 10.9 |  |
| CCCCc1[nH]c(=S)n2c1C[C@@H](c1cc(F)cc(F)c1)C2 [Example 80, (S)-1-butyl-6-(3,5-difluorophenyl)-6,7-dihydro-2H-pyrrolo[1,2-c]imidazole-3(5H)-thione] |  |  | 56.7 |
| S=c1[nH]cc2n1CC(C1CCCCC1)C2 (stereo not drawn) [Example 81, 6-cyclohexyl-6,7-dihydro-2H-pyrrolo[1,2-c]imidazole-3(5H)-thione] |  | 59.4 |  |
| Fc1cc(F)c(F)c([C@H]2Cc3c[nH]c(=S)n3C2)c1 [Example 83, (R)-6-(2,3,5-trifluorophenyl)-2,5,6,7-tetrahydro-3H-pyrrolo[1,2-c]imidazole-3-thione] | 84 | 33.1 |  |
| Fc1cccc(F)c1[C@@H]1Cc2c[nH]c(=S)n2C1 [Example 84, (S)-6-(2,6-difluorophenyl)-2,5,6,7-tetrahydro-3H-pyrrolo[1,2-c]imidazole-3-thione] | 96.9 | 41.9 |  |
| Fc1ccc(Cl)c(F)c1[C@@H]1Cc2c[nH]c(=S)n2C1 [Example 85, (S)-6-(3-chloro-2,6-difluorophenyl)-2,5,6,7-tetrahydro-3H-pyrrolo[1,2-c]imidazole-3-thione] | 0 | 0 |  |
| Fc1ccc(Cl)c(F)c1[C@H]1Cc2c[nH]c(=S)n2C1 [Example 86, (R)-6-(3-chloro-2,6-difluorophenyl)-2,5,6,7-tetrahydro-3H-pyrrolo[1,2-c]imidazole-3-thione] | 25.3 | 0 |  |
| Fc1cccc(F)c1[C@H]1Cc2c[nH]c(=S)n2C1 [Example 87, (R)-6-(2,6-difluorophenyl)-2,5,6,7-tetrahydro-3H-pyrrolo[1,2-c]imidazole-3-thione] | 36.5 | 0 |  |
| Fc1ccc(Cl)c(F)c1[C@]12C[C@H]1c1n[nH]c(=S)n1C2 [Example 88, (5aS,6aR)-5a-(3-chloro-2,6-difluorophenyl)-5,5a,6,6a-tetrahydrocyclopropa[3,4]pyrrolo[2,1-c][1,2,4]triazole-3(2H)-thione] | 45.8 | 6.2 |  |
| Fc1ccc(Cl)c(F)c1[C@]12C[C@H]1c1c[nH]c(=S)n1C2 [Example 90, (5aS,6aR)-5a-(3-chloro-2,6-difluorophenyl)-5,5a,6,6a-tetrahydrocyclopropa[3,4]pyrrolo[1,2-c]imidazole-3 (2H)-thione] | 1.8 | 1 |  |
